The record followed here is patent publication US11357246B2, “High intensity sweeteners” (Firmenich Incorporated, priority 2015, dated 2022).

Molecules are shown by their SMILES. Some results are limits rather than exact numbers.

Experiment [1] can be described thus: Paired comparison testing (2-AFC) of sweet intensity versus 300 ppm Rebaudioside A by trained panelists. In kind it is in vivo. The settings on record: for Sample selected as sweeter by panelists, Total: LSB pH ~7.1; for Sweetness compared with 300 ppm Rebaudioside A (2-AFC): 0.25 mL sample, LSB pH ~7.1, 0% ethanol. How it is done: Paired comparison tests (2-Alternative Forced Choice difference tests, i.e., 2-AFC) were used to determine sweet intensity equivalence between samples prepared with Rebaudioside A and the test sweet compound. Trained external panelists were used for the taste tests.
2-AFC tests, compound solutions were tested against 300 ppm Rebaudioside A to determine how they matched in sweet intensity. Panelists tasted both samples and indicated which sample was sweeter in each pair. Panelists rinsed their mouths with water prior to starting any test. Samples were presented to panelists in randomized, counterbalanced pairs and were labeled with 3-digit blinding codes. Panelists rinsed with water between samples as well as between pairs. There was a 90 second delay to clear the mouth of any tastes after each pair evaluation. Three replicates of each test were performed.
The 2-AFC data was analyzed to determine significant differences between 300 ppm Rebaudioside A and compound solutions using a probability table for a two-tailed test (alpha=0.05).
The paired comparison testing was performed using a 0.25 mL sample size, and all samples were made with Low Sodium Buffer (LSB) pH ˜7.1 and contain 0% ethanol.

For a further experiment, the target named is T1, hT1R2/hT1R3 (Homo sapiens, UniProt Q7RTX0+Q8TE23).
T1 construct: expressed in transfected cells; parental cells lack the receptor
T1 sequence (Q8TE23 20-839): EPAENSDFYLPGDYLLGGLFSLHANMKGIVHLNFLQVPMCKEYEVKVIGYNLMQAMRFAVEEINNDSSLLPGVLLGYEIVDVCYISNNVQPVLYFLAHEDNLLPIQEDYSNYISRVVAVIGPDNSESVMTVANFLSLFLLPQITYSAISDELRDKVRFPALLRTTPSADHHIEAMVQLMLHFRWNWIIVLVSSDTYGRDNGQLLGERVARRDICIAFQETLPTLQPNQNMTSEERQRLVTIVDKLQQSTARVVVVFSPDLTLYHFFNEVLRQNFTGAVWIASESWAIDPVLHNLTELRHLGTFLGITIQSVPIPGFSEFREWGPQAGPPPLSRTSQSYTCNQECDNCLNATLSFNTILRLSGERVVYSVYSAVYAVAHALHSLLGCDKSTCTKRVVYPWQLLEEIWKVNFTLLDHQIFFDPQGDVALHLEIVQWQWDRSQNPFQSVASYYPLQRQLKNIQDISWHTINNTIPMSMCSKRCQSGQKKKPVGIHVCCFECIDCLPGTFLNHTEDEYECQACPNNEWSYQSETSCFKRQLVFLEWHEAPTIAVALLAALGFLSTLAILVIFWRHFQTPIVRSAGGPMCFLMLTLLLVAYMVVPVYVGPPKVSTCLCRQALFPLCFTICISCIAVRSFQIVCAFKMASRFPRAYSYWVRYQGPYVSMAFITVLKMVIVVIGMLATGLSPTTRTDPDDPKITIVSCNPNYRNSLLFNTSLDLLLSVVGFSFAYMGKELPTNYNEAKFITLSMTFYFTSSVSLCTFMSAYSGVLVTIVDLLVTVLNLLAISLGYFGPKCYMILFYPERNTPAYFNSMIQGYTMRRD
T1 sequence (Q7RTX0 21-852): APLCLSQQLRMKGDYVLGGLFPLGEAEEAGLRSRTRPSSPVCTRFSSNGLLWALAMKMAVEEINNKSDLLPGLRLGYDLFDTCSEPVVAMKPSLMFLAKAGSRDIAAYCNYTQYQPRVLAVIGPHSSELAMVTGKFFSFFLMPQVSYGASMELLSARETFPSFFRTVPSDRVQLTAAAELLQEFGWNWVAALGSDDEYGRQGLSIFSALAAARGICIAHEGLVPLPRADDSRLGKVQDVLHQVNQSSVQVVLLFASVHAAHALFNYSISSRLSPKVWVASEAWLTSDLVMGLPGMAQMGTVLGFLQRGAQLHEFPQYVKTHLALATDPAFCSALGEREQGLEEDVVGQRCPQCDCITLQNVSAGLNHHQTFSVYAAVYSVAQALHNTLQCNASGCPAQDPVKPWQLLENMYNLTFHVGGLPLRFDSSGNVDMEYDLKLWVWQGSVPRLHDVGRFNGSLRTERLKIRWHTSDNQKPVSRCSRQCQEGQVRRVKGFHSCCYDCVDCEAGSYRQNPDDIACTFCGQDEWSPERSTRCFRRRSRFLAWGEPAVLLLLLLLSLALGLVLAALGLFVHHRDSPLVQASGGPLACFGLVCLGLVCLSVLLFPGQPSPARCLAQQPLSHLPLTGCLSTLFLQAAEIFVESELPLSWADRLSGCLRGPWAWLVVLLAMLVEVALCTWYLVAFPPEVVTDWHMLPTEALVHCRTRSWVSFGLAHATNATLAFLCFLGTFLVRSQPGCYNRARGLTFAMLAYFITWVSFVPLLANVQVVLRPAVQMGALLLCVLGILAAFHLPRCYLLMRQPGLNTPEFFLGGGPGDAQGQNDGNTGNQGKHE
As to the kind of experiment: HTS-Sweet: FLIPR calcium fluorometric imaging assay in cells stably expressing the human sweet taste receptor and a promiscuous G protein. In kind it is cell-based. The settings on record: FLIPR, Fluo-4AM, 10 concentrations 0.4 μM to 200 μM in duplicates; read-out: Compound EC50s for hT1R2/hT1R3. As to the method:
Compound activity (EC50) was determined using an automated fluorometric imaging assay on a FLIPR instrument (Fluorometric […] Plate Reader, Molecular Devices, Sunnyvale, Calif.). Cell stably expressing the human sweet taste receptor and a promiscuous G protein were seeded into 384-well plates (at approximately 40,000 cells per well). Cells were grown for 24 hours at 37° C. Cells were then loaded with the calcium dye Fluo-4AM (Molecular Probes, Eugene, Oreg.), 4 μM in a phosphate buffered saline (D-PBS) (Invitrogen, Carlsbad, Calif.), for 1 hour at room temperature. After replacement with 25 μl D-PBS, stimulation was performed in the FLIPR instrument and at room temperature by the addition of 25 μl D-PBS supplemented with different stimuli at concentrations corresponding to twice the desired final level. Receptor activity was quantified by determining the maximal fluorescence increases (using a 480 nm excitation and 535 nm emission) after normalization to basal fluorescence intensity measured before stimulation.
For dose-responses analysis, stimuli were presented in duplicates at 10 different concentrations ranging from 0.4 μM to 200 μM. EC50 s were determined using a non-linear regression algorithm, where the Hill slope, bottom asymptotes and top asymptotes were allowed to vary.

Setting [2] is: 300 ppm Compound 1 vs 300 ppm Rebaudioside A, n = 45 (15 panelists × 3 reps), p-value 0.072.
Where [3] appears, read: 250 ppm Compound 18 vs 300 ppm Rebaudioside A, n = 36 (12 panelists × 3 reps), p-value 0.681.
[4] abbreviates: 300 ppm Compound 18 vs 300 ppm Rebaudioside A, n = 42 (14 panelists × 3 reps), p-value 0.044.

In the case of `C[C@H](CC[C@@H](O[C@@H]1O[C@H](CO)[C@@H](O)[C@H](O)[C@H]1O[C@@H]1O[C@H](CO)[C@@H](O)[C@H](O)[C@H]1O)C(C)(C)O)C1CC[C@@]2(C)C3CC=C4C(CC[C@H](O[C@@H]5O[C@H](CO)[C@@H](O[C@@H]6O[C@H](CO)[C@@H](O)[C@H](O)[C@H]6O)[C@H](O)[C@H]5O)C4(C)C)[C@]3(C)[C@H](O)C[C@]12C` (some centres unmarked) [Compound 1], the “Sample selected as sweeter by panelists, Total” value (“Sample selected as sweeter” below) in experiment [1] (setting [2]) was determined as 16. In experiment [1] (test compound at 300 ppm), the “Sweetness compared with 300 ppm Rebaudioside A (2-AFC)” value is given as “not significantly different in sweetness”.

Turning to `C[C@H](CC[C@@H](O[C@@H]1O[C@H](CO)[C@@H](O)[C@H](O)[C@H]1O[C@@H]1O[C@H](CO)[C@@H](O)[C@H](O[C@@H]2O[C@H](CO)[C@@H](O)[C@H](O)[C@H]2O)[C@H]1O)C(C)(C)O)C1CC[C@@]2(C)C3CC=C4C(CC[C@H](O[C@@H]5O[C@H](CO)[C@@H](O)[C@H](O[C@@H]6O[C@H](CO)[C@@H](O)[C@H](O)[C@H]6O)[C@H]5O)C4(C)C)[C@]3(C)[C@H](O)C[C@]12C` (some centres unmarked) [Compound 18], the figures for the “Sample selected as sweeter” value in experiment [1] (setting [3]) and in experiment [1] (setting [4]) were 20 and 28, respectively. For the same compound, the “Sweetness compared with 300 ppm Rebaudioside A (2-AFC)” value is “not significantly different in sweetness” in experiment [1] (test compound at 250 ppm) and “significantly sweeter” in experiment [1] (test compound at 300 ppm).

`C[C@H](CC[C@@H](O[C@@H]1O[C@H](CO)[C@@H](O)[C@H](O)[C@H]1O[C@@H]1O[C@H](CO)[C@@H](O)[C@H](O)[C@H]1O)C(C)(C)O)C1CC[C@@]2(C)C3CC=C4C(CC[C@H](O[C@@H]5O[C@H](CO[C@H]6O[C@H](COC7O[C@H](CO)[C@@H](O)[C@H](O)[C@H]7O)[C@@H](O)[C@H](O)[C@H]6O)[C@@H](O)[C@H](O)[C@H]5O)C4(C)C)[C@]3(C)[C@H](O)C[C@]12C` (some centres unmarked) [Compound 33]: on hT1R2/hT1R3, the EC50 is more than 30 µM.

As for `C[C@H](CC[C@@H](O[C@@H]1O[C@H](CO)[C@@H](O[C@@H]2O[C@H](CO)[C@@H](O)[C@H](O)[C@H]2O)[C@H](O)[C@H]1O[C@@H]1O[C@H](CO)[C@@H](O)[C@H](O)[C@H]1O)C(C)(C)O)C1CC[C@@]2(C)C3CC=C4C(CC[C@H](O)C4(C)C)[C@]3(C)[C@H](O)C[C@]12C` (some centres unmarked) [Compound 35], the EC50 at hT1R2/hT1R3 is 17 to 30 µM.

For `C=C1C[C@@]23CC[C@H]4[C@@](C)(CCC[C@@]4(C)C(=O)O[C@@H]4O[C@H](CO)[C@@H](O)[C@H](O)[C@H]4O)[C@@H]2CC[C@]1(O[C@@H]1O[C@H](CO)[C@@H](O)[C@H](O[C@@H]2O[C@H](CO)[C@@H](O)[C@H](O)[C@H]2O)[C@H]1O[C@@H]1O[C@H](CO)[C@@H](O)[C@H](O)[C@H]1O)C3` [Rebaudioside A, reference compound], the “Sample selected as sweeter” value was 16 in experiment [1] (setting [3]), 29 in experiment [1] (setting [2]) and 14 in experiment [1] (setting [4]).
